Experiments:
Assay type in all cases: cell-based
Settings in all cases: 16 h treatment, EGFR degradation by HTRF
EGFR [1] = molecular target: T1, EGFR (Homo sapiens, UniProt P00533, L858R/T790M); assay: Cell Degradation 1: EGFR degradation in H1975 cells, HTRF assay
T1 construct: endogenous in cells; host or cells: H1975
Procedure, shortened: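 H1975 cells treated with compound for 16 h, lysed 1 h at room temperature. EGFR measured by HTRF after overnight antibody incubation (665/620 nm). DC50 from four-parameter logistic fit of percent inhibition against concentration.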

EGFR [2] = molecular target: T2, EGFR (Homo sapiens, UniProt P00533, DEL746-750); assay: Cell Degradation 2: EGFR degradation in HCC827 cells, HTRF assay
T2 construct: endogenous in cells; host or cells: HCC827
Procedure, shortened: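 Compound-treated HCC827 cells were lysed after 16 h and EGFR measured by HTRF (337 nm excitation, 665/620 nm emission) after overnight antibody incubation at room temperature. DC50 came from a four-parameter fit of percent inhibition against compound concentration.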

EGFR DTC = assay: Cell Degradation 3: EGFR degradation in BaF3 cells (DTC), HTRF assay
Procedure, shortened: (§1)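 BaF3 cells expressing EGFR (LTC triple mutant C797S/L858R/T790M or DTC) exposed to compounds for 16 h, 8 doses from 4-fold dilution, 0.2% DMSO. Residual EGFR quantified by HTRF in lysates (triple mutant lysate diluted 1:1); DC50 from four-parameter logistic fit.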

EGFR LTC = molecular target: T3, EGFR LTC (Homo sapiens, UniProt P00533, C797S/L858R/T790M); assay: Cell Degradation 3: EGFR degradation in BaF3 cells (LTC), HTRF assay
T3 construct: expressed in transfected cells; host or cells: BaF3
Procedure, shortened: as §1

T3 sequence (P00533 25-1210 T790M/C797S/L858R): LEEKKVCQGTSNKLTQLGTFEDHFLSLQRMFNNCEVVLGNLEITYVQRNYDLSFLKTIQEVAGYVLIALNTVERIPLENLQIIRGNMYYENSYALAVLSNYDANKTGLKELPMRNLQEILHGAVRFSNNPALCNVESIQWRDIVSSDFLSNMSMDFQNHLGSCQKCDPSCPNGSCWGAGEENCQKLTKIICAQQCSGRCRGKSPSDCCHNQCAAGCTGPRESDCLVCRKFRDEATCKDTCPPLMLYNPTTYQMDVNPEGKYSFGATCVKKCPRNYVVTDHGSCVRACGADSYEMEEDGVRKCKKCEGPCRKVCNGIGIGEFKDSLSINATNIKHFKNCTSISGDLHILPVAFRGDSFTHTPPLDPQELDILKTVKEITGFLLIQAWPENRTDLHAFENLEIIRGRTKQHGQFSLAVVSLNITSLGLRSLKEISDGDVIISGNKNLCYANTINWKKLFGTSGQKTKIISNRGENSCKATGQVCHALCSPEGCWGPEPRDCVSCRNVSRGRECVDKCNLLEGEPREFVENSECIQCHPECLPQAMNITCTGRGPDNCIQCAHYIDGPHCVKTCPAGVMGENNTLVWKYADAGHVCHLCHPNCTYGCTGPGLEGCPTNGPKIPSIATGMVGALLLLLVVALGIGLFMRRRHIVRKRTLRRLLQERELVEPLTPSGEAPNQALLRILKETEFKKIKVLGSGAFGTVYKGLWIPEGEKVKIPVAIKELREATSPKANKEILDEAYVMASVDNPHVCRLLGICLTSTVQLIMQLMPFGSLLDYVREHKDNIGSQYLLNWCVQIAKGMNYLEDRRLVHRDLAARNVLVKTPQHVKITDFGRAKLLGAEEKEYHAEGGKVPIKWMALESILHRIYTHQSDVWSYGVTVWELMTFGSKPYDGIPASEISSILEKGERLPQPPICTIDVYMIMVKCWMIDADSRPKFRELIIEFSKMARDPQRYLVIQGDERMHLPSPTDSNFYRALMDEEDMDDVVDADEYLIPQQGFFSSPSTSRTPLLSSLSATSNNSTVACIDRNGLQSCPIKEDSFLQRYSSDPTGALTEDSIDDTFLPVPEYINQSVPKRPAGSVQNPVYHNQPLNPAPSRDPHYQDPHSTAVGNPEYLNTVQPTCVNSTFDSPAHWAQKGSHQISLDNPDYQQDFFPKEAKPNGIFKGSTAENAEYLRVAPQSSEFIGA
T1 sequence (P00533 25-1210 T790M/L858R): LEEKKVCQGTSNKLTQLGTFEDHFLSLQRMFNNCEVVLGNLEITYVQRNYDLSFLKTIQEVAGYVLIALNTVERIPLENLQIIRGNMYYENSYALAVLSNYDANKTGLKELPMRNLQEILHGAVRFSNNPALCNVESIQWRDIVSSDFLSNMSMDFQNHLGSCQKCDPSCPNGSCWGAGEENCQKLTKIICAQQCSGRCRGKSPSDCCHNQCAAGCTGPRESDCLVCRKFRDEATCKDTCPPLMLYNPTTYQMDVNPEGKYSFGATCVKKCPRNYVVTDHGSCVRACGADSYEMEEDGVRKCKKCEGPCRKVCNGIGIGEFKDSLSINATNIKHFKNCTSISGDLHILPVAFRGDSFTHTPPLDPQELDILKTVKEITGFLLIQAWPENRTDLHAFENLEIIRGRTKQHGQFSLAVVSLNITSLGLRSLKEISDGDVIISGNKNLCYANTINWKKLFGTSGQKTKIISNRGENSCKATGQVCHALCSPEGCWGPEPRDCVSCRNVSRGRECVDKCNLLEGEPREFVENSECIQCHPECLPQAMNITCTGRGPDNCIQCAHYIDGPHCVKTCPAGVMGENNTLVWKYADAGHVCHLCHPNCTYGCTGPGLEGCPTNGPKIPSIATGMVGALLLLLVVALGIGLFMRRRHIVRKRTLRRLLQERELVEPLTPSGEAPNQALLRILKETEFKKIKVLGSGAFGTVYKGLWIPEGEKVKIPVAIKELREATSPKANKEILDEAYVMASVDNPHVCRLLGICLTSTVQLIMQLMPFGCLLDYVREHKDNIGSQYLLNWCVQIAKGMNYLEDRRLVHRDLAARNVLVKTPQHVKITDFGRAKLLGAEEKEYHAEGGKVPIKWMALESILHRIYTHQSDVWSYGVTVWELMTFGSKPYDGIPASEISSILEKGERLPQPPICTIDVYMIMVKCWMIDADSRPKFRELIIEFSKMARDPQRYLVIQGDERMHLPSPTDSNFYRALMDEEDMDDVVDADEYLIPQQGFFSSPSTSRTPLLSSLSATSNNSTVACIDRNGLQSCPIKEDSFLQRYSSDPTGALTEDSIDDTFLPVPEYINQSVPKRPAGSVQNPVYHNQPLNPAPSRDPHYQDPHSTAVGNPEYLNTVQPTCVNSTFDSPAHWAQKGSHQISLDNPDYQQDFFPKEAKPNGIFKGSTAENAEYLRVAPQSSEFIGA
T2 sequence (P00533 with tags, fused parts or gaps DEL746-750): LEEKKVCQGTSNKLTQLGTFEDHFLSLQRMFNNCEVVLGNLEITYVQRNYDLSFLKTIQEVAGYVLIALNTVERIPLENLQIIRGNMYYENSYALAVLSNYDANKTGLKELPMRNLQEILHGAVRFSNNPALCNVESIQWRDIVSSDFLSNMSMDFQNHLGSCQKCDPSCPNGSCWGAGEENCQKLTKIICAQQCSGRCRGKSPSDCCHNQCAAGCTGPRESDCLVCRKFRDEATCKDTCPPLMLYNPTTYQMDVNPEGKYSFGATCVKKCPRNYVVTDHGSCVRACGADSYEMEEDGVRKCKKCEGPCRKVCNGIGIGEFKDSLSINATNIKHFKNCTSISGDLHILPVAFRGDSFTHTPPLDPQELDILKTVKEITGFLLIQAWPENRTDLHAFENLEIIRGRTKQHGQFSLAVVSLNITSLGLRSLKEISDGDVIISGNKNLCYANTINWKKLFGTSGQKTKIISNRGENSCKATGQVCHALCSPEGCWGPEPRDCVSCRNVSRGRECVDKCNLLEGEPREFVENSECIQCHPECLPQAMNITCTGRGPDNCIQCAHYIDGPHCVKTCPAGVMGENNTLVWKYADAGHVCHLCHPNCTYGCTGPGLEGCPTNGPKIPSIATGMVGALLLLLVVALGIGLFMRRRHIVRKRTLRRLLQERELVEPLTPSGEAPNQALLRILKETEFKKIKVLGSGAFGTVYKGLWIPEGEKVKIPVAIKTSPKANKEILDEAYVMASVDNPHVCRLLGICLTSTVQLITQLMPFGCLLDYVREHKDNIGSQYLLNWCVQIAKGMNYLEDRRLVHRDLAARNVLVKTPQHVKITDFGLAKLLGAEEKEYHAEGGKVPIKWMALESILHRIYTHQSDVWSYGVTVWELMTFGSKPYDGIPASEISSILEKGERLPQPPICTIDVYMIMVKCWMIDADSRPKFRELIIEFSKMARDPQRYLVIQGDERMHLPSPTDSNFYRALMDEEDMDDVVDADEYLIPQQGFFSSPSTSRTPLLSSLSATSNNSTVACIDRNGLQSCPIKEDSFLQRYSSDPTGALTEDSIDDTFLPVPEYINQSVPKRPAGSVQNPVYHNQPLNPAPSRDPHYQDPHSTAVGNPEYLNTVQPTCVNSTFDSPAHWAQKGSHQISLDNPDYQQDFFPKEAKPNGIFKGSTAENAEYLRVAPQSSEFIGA
T2 sequence (Q96SW2 whole entry partner): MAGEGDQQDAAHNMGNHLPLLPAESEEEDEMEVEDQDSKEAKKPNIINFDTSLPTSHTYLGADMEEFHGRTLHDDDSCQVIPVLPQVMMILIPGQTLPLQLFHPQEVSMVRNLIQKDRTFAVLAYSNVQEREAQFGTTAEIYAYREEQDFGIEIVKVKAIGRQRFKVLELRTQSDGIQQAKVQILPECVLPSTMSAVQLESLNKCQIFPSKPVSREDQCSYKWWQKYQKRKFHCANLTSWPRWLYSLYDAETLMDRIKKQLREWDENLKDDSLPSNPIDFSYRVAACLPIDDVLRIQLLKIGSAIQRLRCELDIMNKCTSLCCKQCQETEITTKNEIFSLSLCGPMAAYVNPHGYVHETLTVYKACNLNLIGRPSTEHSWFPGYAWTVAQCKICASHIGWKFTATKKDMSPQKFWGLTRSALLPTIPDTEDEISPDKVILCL

| Compound | DC50 (EGFR [1]) [nM] | DC50 (EGFR [2]) [nM] | DC50 (EGFR DTC) [nM] | DC50 (EGFR LTC) [nM] |
| --- | --- | --- | --- | --- |
| COc1cc(N2CCC(N3CCN(CCC4CCN(c5ccc6c(c5)C(=O)N(C5CCC(=O)NC5=O)C6=O)CC4)CC3)CC2)ccc1Nc1ncc(Cl)c(Nc2cccc3c2N(S(C)(=O)=O)CC3)n1 (stereo not shown) [Example 37, 5-(4-(2-(4-(1-(4-((5-chloro-4-((1-(methylsulfonyl)indolin-7-yl)amino)pyrimidin-2-yl)amino)-3-methoxyphenyl)piperidin-4-yl)piperazin-1-yl)ethyl)piperidin-1-yl)-2-(2,6-dioxopiperidin-3-yl)isoindoline-1,3-dione] | 3.8 | 3.5 | 16.7 | 43.1 |
| CS(=O)(=O)N1CCc2cccc(Nc3nc(Nc4ccc(N5CCC(N6CCN(CCc7ccc(C8CCC(=O)NC8=O)c(F)c7)CC6)CC5)c5c4OCC5)ncc3Cl)c21 (stereo not shown) [Example 53, 3-(4-(2-(4-(1-(7-((5-chloro-4-((1-(methylsulfonyl)indolin-7-yl)amino)pyrimidin-2-yl)amino)-2,3-dihydrobenzofuran-4-yl)piperidin-4-yl)piperazin-1-yl)ethyl)-2-fluorophenyl)piperidine-2,6-dione] | 2.6 | 3.7 | 21.8 | 35.7 |
| CS(=O)(=O)N1CCc2cccc(Nc3nc(Nc4ccc(N5CCC(N6CCN(CCc7ccc(C8CCC(=O)NC8=O)cc7)CC6)CC5)c(F)c4)ncc3Cl)c21 (stereo not shown) [Example 45, 3-(4-(2-(4-(1-(4-((5-chloro-4-((1-(methylsulfonyl)indolin-7-yl)amino)pyrimidin-2-yl)amino)-2-fluorophenyl)piperidin-4-yl)piperazin-1-yl)ethyl)phenyl)piperidine-2,6-dione] | 2.3 | 6.7 | 9.9 | 17.3 |
| COc1cc(N2CCC(N3CCN(CCc4ccc(C5CCC(=O)NC5=O)cc4)CC3)CC2)c(C)cc1Nc1ncc(Br)c(Nc2cccc3c2N(S(C)(=O)=O)CC3)n1 (stereo not shown) [Example 39, 3-(4-(2-(4-(1-(4-((5-bromo-4-((1-(methylsulfonyl)indolin-7-yl)amino)pyrimidin-2-yl)amino)-5-methoxy-2-methylphenyl)piperidin-4-yl)piperazin-1-yl)ethyl)phenyl)piperidine-2,6-dione] | 12.1 | 13.6 | 33.7 | 157 |
| COc1cc(N2CCC(N3CCN(CC4CN(c5ccc6c(c5)C(=O)N(C5CCC(=O)NC5=O)C6=O)C4)CC3)CC2)ccc1Nc1ncc(Cl)c(Nc2cccc3c2N(S(C)(=O)=O)CC3)n1 (stereo not shown) [Example 86, 5-(3-((4-(1-(4-((5-chloro-4-((1-(methylsulfonyl)indolin-7-yl)amino)pyrimidin-2-yl)amino)-3-methoxyphenyl)piperidin-4-yl)piperazin-1-yl)methyl)azetidin-1-yl)-2-(2,6-dioxopiperidin-3-yl)isoindoline-1,3-dione] | 1.8 | 2.7 | 13 | 16.2 |
| CS(=O)(=O)N1CCc2cccc(Nc3nc(Nc4ccc(N5CCC(N6CCN(CCc7ccc(C8CCC(=O)NC8=O)c(F)c7)CC6)CC5)c(F)c4)nc4[nH]ccc34)c21 (stereo not shown) [Example 3, 3-(2-fluoro-4-(2-(4-(1-(2-fluoro-4-((4-((1-(methylsulfonyl)indolin-7-yl)amino)-7H-pyrrolo[2,3-d]pyrimidin-2-yl)amino)phenyl)piperidin-4-yl)piperazin-1-yl)ethyl)phenyl)piperidine-2,6-dione] | 9.5 | 19.8 | 11.6 | 19.9 |
| CS(=O)(=O)N1CCc2cccc(Nc3nc(Nc4ccc(N5CCC(N6CCN(CCc7cc(F)c(C8CCC(=O)NC8=O)c(F)c7)CC6)CC5)c(F)c4)nc4[nH]ccc34)c21 (stereo not shown) [Example 68, 3-(2,6-difluoro-4-(2-(4-(1-(2-fluoro-4-((4-((1-(methylsulfonyl)indolin-7-yl)amino)-7H-pyrrolo[2,3-d]pyrimidin-2-yl)amino)phenyl)piperidin-4-yl)piperazin-1-yl)ethyl)phenyl)piperidine-2,6-dione] | 3.7 | 17.6 | 3 | 4.4 |
| COc1cc(N2CCC(N3CCN(CCC4CCN(c5ccc(C6CCC(=O)NC6=O)c(F)c5)CC4)CC3)CC2)ccc1Nc1ncc(Cl)c(Nc2cccc3c2N(S(C)(=O)=O)CC3)n1 (stereo not shown) [Example 36, 3-(4-(4-(2-(4-(1-(4-((5-chloro-4-((1-(methylsulfonyl)indolin-7-yl)amino)pyrimidin-2-yl)amino)-3-methoxyphenyl)piperidin-4-yl)piperazin-1-yl)ethyl)piperidin-1-yl)-2-fluorophenyl)piperidine-2,6-dione] | 15.5 | 8.6 | 26.3 | 42.6 |
| CS(=O)(=O)N1CCc2cccc(Nc3nc(Nc4ccc(N5CCC(N6CCN(C(=O)[C@@H]7CCN(c8ccc9c(c8)C(=O)N(C8CCC(=O)NC8=O)C9=O)C7)CC6)CC5)c(F)c4)ncc3Cl)c21 (stereo partly drawn) [Example 83, 5-((R)-3-(4-(1-(4-((5-chloro-4-((1-(methylsulfonyl)indolin-7-yl)amino)pyrimidin-2-yl)amino)-2-fluorophenyl)piperidin-4-yl)piperazine-1-carbonyl)pyrrolidin-1-yl)-2-(2,6-dioxopiperidin-3-yl)isoindoline-1,3-dione] | 3.2 | 3 | 5.9 | 14.6 |
| COc1cc(N2CCN(CCC3CCN(c4ccc(C5CCC(=O)NC5=O)cc4)CC3)CC2)ccc1Nc1ncc(Cl)c(Nc2cccc3c2N(S(C)(=O)=O)CC3)n1 (stereo not shown) [Example 56, 3-(4-(4-(2-(4-(4-((5-chloro-4-((1-(methylsulfonyl)indolin-7-yl)amino)pyrimidin-2-yl)amino)-3-methoxyphenyl)piperazin-1-yl)ethyl)piperidin-1-yl)phenyl)piperidine-2,6-dione] | 13.5 | 5.8 | 23.6 | 233 |

Further lines, results first:

| DC50 (EGFR [1]) [nM] | DC50 (EGFR [2]) [nM] | DC50 (EGFR DTC) [nM] | DC50 (EGFR LTC) [nM] | Compound |
| --- | --- | --- | --- | --- |
| 7 | 6.7 | 38.2 | 276 | COc1cc(N2CCC(N3CCN(CCc4ccc(C5CCC(=O)NC5=O)cc4)CC3)CC2)ccc1Nc1ncc(Cl)c(Nc2cccc3c2N(S(C)(=O)=O)CC3)n1 (stereo not shown) [Example 34, 3-(4-(2-(4-(1-(4-((5-chloro-4-((1-(methylsulfonyl)indolin-7-yl)amino)pyrimidin-2-yl)amino)-3-methoxyphenyl)piperidin-4-yl)piperazin-1-yl)ethyl)phenyl)piperidine-2,6-dione] |
| 9.1 | 12.7 | 13.4 | 8.4 | CS(=O)(=O)N1CCc2cccc(Nc3nc(Nc4ccc(N5CCC(N6CCN(CCC7CCN(c8ccc(C9CCC(=O)NC9=O)cc8)CC7)CC6)CC5)c(F)c4)nc4[nH]ccc34)c21 (stereo not shown) [Example 8, 3-(4-(4-(2-(4-(1-(2-fluoro-4-((4-((1-(methylsulfonyl)indolin-7-yl)amino)-7H-pyrrolo[2,3-d]pyrimidin-2-yl)amino)phenyl)piperidin-4-yl)piperazin-1-yl)ethyl)piperidin-1-yl)phenyl)piperidine-2,6-dione] |
| 3 | 2.9 | 1.8 | 2.8 | COc1cc(N2CCC(N3CCN(CC4CN(c5ccc6c(c5)CN(C5CCC(=O)NC5=O)C6=O)C4)CC3)CC2)ccc1Nc1ncc(Cl)c(Nc2cccc3c2N(S(C)(=O)=O)CC3)n1 (stereo not shown) [Example 85, 3-(5-(3-((4-(1-(4-((5-chloro-4-((1-(methylsulfonyl)indolin-7-yl)amino)pyrimidin-2-yl)amino)-3-methoxyphenyl)piperidin-4-yl)piperazin-1-yl)methyl)azetidin-1-yl)-1-oxoisoindolin-2-yl)piperidine-2,6-dione] |
| 6.03 | 10.8 | 16.7 | 24.2 | CS(=O)(=O)N1CCc2cccc(Nc3nc(Nc4ccc(N5CCC(N6CCN(CCCC7CN(c8ccc9c(c8)C(=O)N(C8CCC(=O)NC8=O)C9=O)C7)CC6)CC5)c(F)c4)nc4[nH]ccc34)c21 (stereo not shown) [Example 19, 2-(2,6-dioxopiperidin-3-yl)-5-(3-(3-(4-(1-(2-fluoro-4-((4-((1-(methylsulfonyl)indolin-7-yl)amino)-7H-pyrrolo[2,3-d]pyrimidin-2-yl)amino)phenyl)piperidin-4-yl)piperazin-1-yl)propyl)azetidin-1-yl)isoindoline-1,3-dione] |
| 16 | 6 | 11 | 13 | COc1cc(N2CCC(N3CCN(C[C@@H]4CCN(c5ccc6c(c5)CN(C5CCC(=O)NC5=O)C6=O)C4)CC3)CC2)c(C)cc1Nc1ncc(Br)c(Nc2cccc3c2N(S(C)(=O)=O)CC3)n1 (stereo partly drawn) [Example 154, 3-(5-((S)-3-((4-(1-(4-((5-bromo-4-((1-(methylsulfonyl)indolin-7-yl)amino)pyrimidin-2-yl)amino)-5-methoxy-2-methylphenyl)piperidin-4-yl)piperazin-1-yl)methyl)pyrrolidin-1-yl)-1-oxoisoindolin-2-yl)piperidine-2,6-dione] |
| 5.5 | 4.3 | 6.5 | 12.2 | CS(=O)(=O)N1CCc2cccc(Nc3nc(Nc4ccc(N5CCC(N6CCN(CCC7CCN(c8ccc(C9CCC(=O)NC9=O)c(F)c8)CC7)CC6)CC5)c(F)c4)ncc3Cl)c21 (stereo not shown) [Example 80, 3-(4-(4-(2-(4-(1-(4-((5-chloro-4-((1-(methylsulfonyl)indolin-7-yl)amino)pyrimidin-2-yl)amino)-2-fluorophenyl)piperidin-4-yl)piperazin-1-yl)ethyl)piperidin-1-yl)-2-fluorophenyl)piperidine-2,6-dione] |

From patent publication US12643903B2, “Bifunctional compounds for degradation of EGFR and related methods of use” (BeiGene, Ltd., priority 2020, dated 2026)
